# Laboratory results published in ChEMBL document CHEMBL1140860, “Synthesis and evaluation of dihydroartemisinin and dihydroartemisitene acetal dimers showing anticancer and antiprotozoal activity” (Bioorg Med Chem, 2009).
# How the values were obtained:
# SK-MEL-28 = test: Growth inhibition of human SK-MEL-28 cells after 48 hrs by sulforhodamine B assay; assay type: functional; details: SK-MEL-28, 48 h
# HUVEC [1] = test: Antiangiogenic activity against HUVEC assessed as inhibition of VEGF-induced cell migration by NCI antiangiogenesis assay; assay type: functional, cell-based; details: Homo sapiens
# HL-60 [2] = test: Antitumor activity against human HL60 cells xenografted athymic nude mouse at 25 mg/kg, sc administered QD for 10 days relative to control; assay type: functional; details: route subcutaneous
# HL-60 [3] = test: Antitumor activity against human HL60 cells xenografted athymic nude mouse at 50 mg/kg, sc administered QD for 10 days relative to control; assay type: functional; details: route subcutaneous
# IGROV-1 = test: Growth inhibition of human IGROV1 cells after 48 hrs by sulforhodamine B assay; assay type: functional; details: IGROV-1, 48 h
# OVCAR-8 = test: Growth inhibition of human OVCAR8 cells after 48 hrs by sulforhodamine B assay; assay type: functional; details: OVCAR-8, 48 h
# HL-60 [4] = test: Antitumor activity against human HL60 cells xenografted athymic nude mouse assessed as delay in tumor growth time at 50 mg/kg, sc administered QD; assay type: functional; details: route subcutaneous
# SN12C = test: Growth inhibition of human SN12C cells after 48 hrs by sulforhodamine B assay; assay type: functional
# HUVEC [5] = test: Antiangiogenic activity against HUVEC assessed as inhibition of capillary-like structure formation by NCI antiangiogenesis assay; assay type: functional, cell-based; details: Homo sapiens
# [6] = Growth inhibition of human […] cells after 48 hrs by sulforhodamine B assay; assay type: functional
# HUVEC [7] = test: Antiangiogenic activity against HUVEC assessed as growth inhibition by NCI antiangiogenesis assay; assay type: functional, cell-based; details: Homo sapiens
# Mus musculus [8] = test: Toxicity in human HL60 cells xenografted athymic nude mouse assessed as mortality at 50 mg/kg, sc administered QD for 10 days; assay type: organism-based, HL-60; design: dose 50 mg/kg, route subcutaneous; details: in vivo, 240 h
# DU-145 = test: Growth inhibition of human DU145 cells after 48 hrs by sulforhodamine B assay; assay type: functional; details: DU-145, 48 h
# [9] = Growth inhibition of human Hs 578T cells after 48 hrs by sulforhodamine B assay; assay type: functional
# HCT-116 = test: Growth inhibition of human HCT116 cells after 48 hrs by sulforhodamine B assay; assay type: functional; details: HCT-116, 48 h
# Mus musculus [10] = test: Toxicity in human HL60 cells xenografted athymic nude mouse assessed as mortality at 25 mg/kg, sc administered QD for 10 days; assay type: organism-based, HL-60; design: dose 25 mg/kg, route subcutaneous; details: in vivo, 240 h
# NCI-H322M = test: Growth inhibition of human NCI-H322M cells after 48 hrs by sulforhodamine B assay; assay type: functional
# Mus musculus [11] = test: Toxicity in human HL60 cells xenografted athymic nude mouse assessed as body weight loss at 25 mg/kg, sc administered QD for 10 days relative to control; assay type: organism-based, HL-60; design: dose 25 mg/kg, route subcutaneous; details: in vivo, 240 h
# HL-60 [12] = test: Antitumor activity against human HL60 cells xenografted athymic nude mouse assessed as delay in tumor growth time at 25 mg/kg, sc administered QD; assay type: functional; details: route subcutaneous
# Leishmania donovani = test: Antileishmanial activity against Leishmania donovani promastigotes after 48 hrs by alamar-blue assay; assay type: functional, organism-based
# HCC 2998 = test: Growth inhibition of human HCC2998 cells after 48 hrs by sulforhodamine B assay; assay type: functional; details: HCC 2998, 48 h
# ACHN = test: Growth inhibition of human ACHN cells after 48 hrs by sulforhodamine B assay; assay type: functional
# Mus musculus [13] = test: Toxicity in human HL60 cells xenografted athymic nude mouse assessed as body weight loss at 50 mg/kg, sc administered QD for 10 days relative to control; assay type: organism-based, HL-60; design: dose 50 mg/kg, route subcutaneous; details: in vivo, 240 h
# CAKI-1 = test: Growth inhibition of human Caki1 cells after 48 hrs by sulforhodamine B assay; assay type: functional; details: CAKI-1, 48 h
# NCI-H522 = test: Growth inhibition of human NCI-H522 cells after 48 hrs by sulforhodamine B assay; assay type: functional; details: NCI-H522, 48 h
# COLO 205 = test: Growth inhibition of human COLO205 cells after 48 hrs by sulforhodamine B assay; assay type: functional; details: COLO 205, 48 h
# SK-OV-3 = test: Growth inhibition of human SKOV3 cells after 48 hrs by sulforhodamine B assay; assay type: functional; details: SK-OV-3, 48 h
structure (smiles),measurement,setting,value
C[C@H]1[C@@H](O[C@H]2CC[C@@H](O[C@H]3O[C@@H]4O[C@@]5(C)CC[C@H]6[C@H](C)CC[C@@H]([C@H]3C)[C@@]46OO5)CC2)O[C@@H]2O[C@@]3(C)CC[C@H]4[C@H](C)CC[C@@H]1[C@@]24OO3,GI50,SK-MEL-28,0.085 µM
same,IC50,HUVEC [1],3.3 µM
same,T/C,HL-60 [2],50%
same,T/C,HL-60 [3],34%
same,GI50,IGROV-1,6.75 µM
same,GI50,OVCAR-8,0.019 µM
same,Activity,HL-60 [4],36 days
same,GI50,SN12C,0.025 µM
same,IC50,HUVEC [5],38.8 µM
same,GI50,[6],< 0.005 µM
same,IC50,HUVEC [7],42 µM
same,Activity,Mus musculus [8],Non-toxic
same,GI50,DU-145,0.028 µM
same,GI50,[9],0.049 µM
same,GI50,HCT-116,0.016 µM
same,Activity,Mus musculus [10],Non-toxic
same,GI50,NCI-H322M,16.6 µM
same,Activity,Mus musculus [11],3%
same,Activity,HL-60 [12],8 days
same,IC50,Leishmania donovani,7.7 µM
same,IC90,Leishmania donovani,77.1 µM
same,GI50,HCC 2998,0.018 µM
same,GI50,ACHN,0.027 µM
same,Activity,Mus musculus [13],17%
same,GI50,CAKI-1,0.037 µM
same,GI50,NCI-H522,0.021 µM
same,GI50,COLO 205,0.007 µM
same,GI50,SK-OV-3,0.034 µM
C[C@H]1[C@@H](OCCO[C@H]2O[C@@H]3O[C@@]4(C)CC[C@H]5[C@H](C)CC[C@@H]([C@H]2C)[C@@]35OO4)O[C@@H]2O[C@@]3(C)CC[C@H]4[C@H](C)CC[C@@H]1[C@@]24OO3,GI50,SK-MEL-28,32.5 µM
same,GI50,IGROV-1,0.065 µM
same,GI50,OVCAR-8,0.179 µM
same,GI50,SN12C,0.54 µM
same,GI50,[6],< 0.01 µM
same,GI50,DU-145,0.22 µM
same,GI50,[9],0.656 µM
same,GI50,HCT-116,0.026 µM
same,GI50,NCI-H322M,> 100 µM
same,GI50,HCC 2998,6.92 µM
same,GI50,ACHN,0.257 µM
same,GI50,CAKI-1,0.297 µM
same,GI50,NCI-H522,0.069 µM
same,GI50,COLO 205,0.49 µM
same,GI50,SK-OV-3,0.798 µM
C[C@H]1[C@H](OCCO[C@H]2O[C@@H]3O[C@@]4(C)CC[C@H]5[C@H](C)CC[C@@H]([C@H]2C)[C@@]35OO4)O[C@@H]2O[C@@]3(C)CC[C@H]4[C@H](C)CC[C@@H]1[C@@]24OO3,GI50,SK-MEL-28,0.727 µM
same,GI50,IGROV-1,8.28 µM
same,GI50,OVCAR-8,0.034 µM
same,GI50,SN12C,0.055 µM
same,GI50,[6],< 0.008 µM
same,GI50,DU-145,8.19 µM
same,GI50,[9],7.65 µM
same,GI50,HCT-116,0.03 µM
same,GI50,NCI-H322M,7.9 µM
same,GI50,HCC 2998,0.067 µM
same,GI50,ACHN,0.224 µM
same,GI50,CAKI-1,0.09 µM
same,GI50,NCI-H522,0.68 µM
same,GI50,COLO 205,0.015 µM
same,GI50,SK-OV-3,17.9 µM
C[C@H]1[C@@H](OCC(=O)CO[C@H]2O[C@@H]3O[C@@]4(C)CC[C@H]5[C@H](C)CC[C@@H]([C@H]2C)[C@@]35OO4)O[C@@H]2O[C@@]3(C)CC[C@H]4[C@H](C)CC[C@@H]1[C@@]24OO3,GI50,SK-MEL-28,11.7 µM
same,IC50,HUVEC [1],28.5 µM
same,GI50,IGROV-1,1.74 µM
same,GI50,OVCAR-8,< 0.01 µM
same,GI50,SN12C,< 0.01 µM
same,IC50,HUVEC [5],> 50 µM
same,GI50,[6],< 0.01 µM
same,IC50,HUVEC [7],57 µM
same,GI50,DU-145,11.2 µM
same,GI50,[9],16.2 µM
same,GI50,HCT-116,< 0.01 µM
same,GI50,NCI-H322M,8.42 µM
same,IC50,Leishmania donovani,10.4 µM
same,IC90,Leishmania donovani,80.3 µM
same,GI50,HCC 2998,< 0.01 µM
same,GI50,ACHN,0.026 µM
same,GI50,CAKI-1,0.077 µM
same,GI50,NCI-H522,0.018 µM
same,GI50,COLO 205,< 0.01 µM
same,GI50,SK-OV-3,15.8 µM
C[C@H]1[C@@H](OCC(CO[C@H]2O[C@@H]3O[C@@]4(C)CC[C@H]5[C@H](C)CC[C@@H]([C@H]2C)[C@@]35OO4)OC(=O)CCC(=O)O)O[C@@H]2O[C@@]3(C)CC[C@H]4[C@H](C)CC[C@@H]1[C@@]24OO3 (some centres undefined),GI50,SK-MEL-28,8.38 µM
same,IC50,HUVEC [1],45.3 µM
same,T/C,HL-60 [2],23%
same,GI50,IGROV-1,11.1 µM
same,GI50,OVCAR-8,0.015 µM
same,GI50,SN12C,0.016 µM
same,IC50,HUVEC [5],45.8 µM
same,GI50,[6],< 0.01 µM
same,IC50,HUVEC [7],56 µM
same,Activity,Mus musculus [8],Toxic
same,GI50,[9],0.186 µM
same,GI50,HCT-116,< 0.01 µM
same,Activity,Mus musculus [10],Non-toxic
same,GI50,NCI-H322M,10.2 µM
same,Activity,Mus musculus [11],1%
same,Activity,HL-60 [12],30 days
same,GI50,ACHN,0.126 µM
same,GI50,CAKI-1,0.044 µM
same,GI50,NCI-H522,0.063 µM
same,GI50,COLO 205,< 0.01 µM
same,GI50,SK-OV-3,27.2 µM
C[C@H]1[C@@H](O[C@H]2CC[C@H](O[C@H]3O[C@@H]4O[C@@]5(C)CC[C@H]6[C@H](C)CC[C@@H]([C@H]3C)[C@@]46OO5)CC2)O[C@@H]2O[C@@]3(C)CC[C@H]4[C@H](C)CC[C@@H]1[C@@]24OO3,GI50,SK-MEL-28,98.8 µM
same,GI50,IGROV-1,0.055 µM
same,GI50,OVCAR-8,0.057 µM
same,GI50,SN12C,0.097 µM
same,GI50,[6],< 0.01 µM
same,GI50,DU-145,0.34 µM
same,GI50,[9],0.063 µM
same,GI50,HCT-116,< 0.01 µM
same,GI50,NCI-H322M,0.672 µM
same,IC50,Leishmania donovani,7.4 µM
same,IC90,Leishmania donovani,18.5 µM
same,GI50,HCC 2998,0.018 µM
same,GI50,ACHN,0.042 µM
same,GI50,CAKI-1,0.326 µM
same,GI50,NCI-H522,0.036 µM
same,GI50,COLO 205,< 0.01 µM
same,GI50,SK-OV-3,0.166 µM
COCC(CO[C@H]1O[C@@H]2O[C@@]3(C)CC[C@H]4[C@H](C)CC[C@@H]([C@H]1C)[C@@]24OO3)O[C@H]1O[C@@H]2O[C@@]3(C)CC[C@H]4[C@H](C)CC[C@@H]([C@H]1C)[C@@]24OO3 (some centres undefined),GI50,SK-MEL-28,5.75 µM
same,GI50,IGROV-1,4.2 µM
same,GI50,OVCAR-8,0.13 µM
same,GI50,SN12C,0.153 µM
same,GI50,[6],0.004 µM
same,GI50,DU-145,8.34 µM
same,GI50,[9],0.074 µM
same,GI50,HCT-116,0.012 µM
same,GI50,NCI-H322M,5.96 µM
same,GI50,HCC 2998,0.108 µM
same,GI50,ACHN,0.189 µM
same,GI50,CAKI-1,0.192 µM
same,GI50,NCI-H522,0.058 µM
same,GI50,COLO 205,0.011 µM
same,GI50,SK-OV-3,10.9 µM
C[C@H]1[C@@H](OCC(O)CO[C@@H]2C[C@@H]3CC[C@@H](C)[C@@H]4CC[C@@]5(C)OO[C@@]34[C@H](O2)O5)O[C@@H]2O[C@@]3(C)CC[C@H]4[C@H](C)CC[C@@H]1[C@@]24OO3 (some centres undefined),GI50,SK-MEL-28,9.39 µM
same,IC50,HUVEC [1],1.8 µM
same,T/C,HL-60 [2],68%
same,T/C,HL-60 [3],34%
same,GI50,IGROV-1,13.1 µM
same,GI50,OVCAR-8,0.252 µM
same,Activity,HL-60 [4],34 days
same,GI50,SN12C,0.263 µM
same,IC50,HUVEC [5],30.8 µM
same,GI50,[6],0.024 µM
same,IC50,HUVEC [7],77 µM
same,Activity,Mus musculus [8],Non-toxic
same,GI50,DU-145,13.8 µM
same,GI50,[9],12.5 µM
same,GI50,HCT-116,0.049 µM
same,Activity,Mus musculus [10],Non-toxic
same,GI50,NCI-H322M,62.5 µM
same,Activity,Mus musculus [11],2%
same,Activity,HL-60 [12],16 days
same,IC50,Leishmania donovani,5 µM
same,IC90,Leishmania donovani,16 µM
same,GI50,HCC 2998,7.02 µM
same,GI50,ACHN,0.248 µM
same,Activity,Mus musculus [13],5%
same,GI50,CAKI-1,0.256 µM
same,GI50,NCI-H522,0.521 µM
same,GI50,COLO 205,0.04 µM
same,GI50,SK-OV-3,21.4 µM
